Assay results published in PMC7044277 (Nature Communications, 2020).
Values joined by “and” are separate entries in the source; they are usually repeats but may differ in a detail not shown here. Equal entries are not always repeated.

Key:
[1] = biological target: DRD2 (D2 long receptor) wild-type (Homo sapiens, UniProt P14416); test: Radioligand competition binding, [3H]-N-methylspiperone, HEK293T membranes
[2] = biological target: DRD3 wild-type (Homo sapiens, UniProt P35462); test: Radioligand competition binding, [3H]-N-methylspiperone
[3] = biological target: T1, DRD4 (D4.4 variant) wild-type (Homo sapiens, UniProt P21917); test: as above
T1 sequence (P21917 1-419): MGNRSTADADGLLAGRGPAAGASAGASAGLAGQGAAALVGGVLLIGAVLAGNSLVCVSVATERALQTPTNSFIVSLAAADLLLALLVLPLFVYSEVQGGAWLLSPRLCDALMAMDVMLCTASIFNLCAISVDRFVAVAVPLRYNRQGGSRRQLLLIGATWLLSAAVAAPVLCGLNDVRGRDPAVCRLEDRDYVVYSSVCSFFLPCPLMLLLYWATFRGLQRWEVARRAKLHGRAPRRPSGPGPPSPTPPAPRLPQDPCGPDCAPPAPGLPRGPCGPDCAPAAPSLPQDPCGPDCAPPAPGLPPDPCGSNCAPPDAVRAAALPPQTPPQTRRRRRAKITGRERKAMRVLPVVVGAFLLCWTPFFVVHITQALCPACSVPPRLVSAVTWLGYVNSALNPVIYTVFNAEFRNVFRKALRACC

[4] = biological target: T2, DRD2 (D2 long receptor) (Homo sapiens, UniProt P14416); test: Gαi/o-mediated cAMP inhibition (GloSensor split-luciferase cAMP reporter), HEK293T; type: cell-based; details: for Response, Fig_S11b dose-response: individual replicates;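 as to all read-outs here: compounds applied 15 min at room temperature, then luciferin plus 400 nM isoproterenol to raise cAMP through endogenous β2-adrenergic receptors, luminescence read 15 min later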
[5] = biological target: T3, DRD4 (D4.4 variant) (Homo sapiens, UniProt P21917); test: Gαi/o-mediated cAMP inhibition (GloSensor); type: cell-based; details: DRD4; agonist, cAMP inhibition; read-out: EC50 ± SEM
T3 sequence (P21917 1-419): T1 sequence (P21917 1-419)

[6] = biological target: T2, DRD2 (D2 long receptor); test: β-arrestin2 recruitment (Tango), HTLA cells; type: cell-based; details: for Response, Fig_S11c dose-response: individual replicates
[7] = biological target: DRD3 (Homo sapiens, UniProt P35462); test: β-arrestin2 recruitment (Tango); type: cell-based; details: DRD3, Tango
[8] = biological target: T3, DRD4 (D4.4 variant); test: β-arrestin2 recruitment (Tango); type: cell-based; details: DRD4; Tango; read-out: EC50 ± SEM
[9] = biological target: DRD2 F1103.28A (Homo sapiens, UniProt P14416, F110A); type: binding; set-up: expressed in transfected cells; host or cells: HEK293T (ATCC CRL-11268); details: DRD2 F1103.28A
Chain of DRD2 F1103.28A (P14416 whole entry F110A): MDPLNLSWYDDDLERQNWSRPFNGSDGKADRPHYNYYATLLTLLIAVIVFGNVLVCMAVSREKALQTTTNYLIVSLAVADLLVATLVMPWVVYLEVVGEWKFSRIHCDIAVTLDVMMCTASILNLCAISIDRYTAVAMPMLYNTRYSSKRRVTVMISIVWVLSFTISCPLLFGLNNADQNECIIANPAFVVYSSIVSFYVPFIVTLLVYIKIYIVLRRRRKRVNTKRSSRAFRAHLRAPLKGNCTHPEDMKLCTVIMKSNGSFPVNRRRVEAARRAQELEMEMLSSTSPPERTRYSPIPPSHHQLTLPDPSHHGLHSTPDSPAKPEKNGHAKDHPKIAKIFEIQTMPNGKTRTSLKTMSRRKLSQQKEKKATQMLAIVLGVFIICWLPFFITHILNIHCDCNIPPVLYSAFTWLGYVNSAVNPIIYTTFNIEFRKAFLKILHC

T2 sequence (P14416 whole entry): as the sequence (P14416 whole entry F110A) above, with A110F counted along it
Chain of DRD3 wild-type (P35462 whole entry): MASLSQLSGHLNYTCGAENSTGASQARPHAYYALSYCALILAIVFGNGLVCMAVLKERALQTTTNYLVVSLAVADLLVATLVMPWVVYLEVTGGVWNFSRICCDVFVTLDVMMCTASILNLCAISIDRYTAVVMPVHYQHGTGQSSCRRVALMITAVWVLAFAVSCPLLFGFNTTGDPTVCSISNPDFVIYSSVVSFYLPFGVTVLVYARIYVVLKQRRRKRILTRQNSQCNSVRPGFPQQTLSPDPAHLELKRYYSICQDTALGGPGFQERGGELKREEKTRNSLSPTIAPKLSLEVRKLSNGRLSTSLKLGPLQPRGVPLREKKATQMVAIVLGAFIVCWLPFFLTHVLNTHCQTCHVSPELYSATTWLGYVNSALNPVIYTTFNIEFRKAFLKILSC
Chain of DRD3 (P35462 whole entry): as above
Chain of DRD2 (D2 long receptor) wild-type (P14416 whole entry): as the sequence (P14416 whole entry F110A) above, with A110F counted along it

Compound: CCCOc1cccc2cc(C(C)NCC3(O)CCCCC3)oc12.Cl (centres unmarked) [O5LE6]
- Ki ([1]; DRD2, [3H]-methylspiperone (0.8-1.0 nM), read-out: Ki): 2510 nM
- pKi ± SEM ([1]; DRD2 wild-type): 5.60±0.27
- Ki ([2]; DRD3, [3H]-methylspiperone (0.8-1.0 nM), read-out: Ki): 390 nM
- pKi ± SEM ([2]; DRD3 wild-type): 6.41±0.20
- Ki ([3]; DRD4, [3H]-methylspiperone (0.8-1.0 nM), read-out: Ki): 6.6 µM
- pKi ± SEM ([3]; DRD4 wild-type): 5.18±0.16
- EC50 ([4]; DRD2, agonist, Gαi/o-mediated cAMP inhibition, read-out: EC50 ± SEM): 0.51 ± 0.22 nM
- Emax relative to quinpirole response ([4]; DRD2, cAMP inhibition): 92.80%
- Response, Fig_S11b dose-response ([4]; Log[Drug] -5): 93.7387 and 96.4518 and 83.3289 and 97.2506 and 100.948 and 91.5558 and 103.412 and 92.2091 and 101.183
- Response, Fig_S11b dose-response ([4]; Log[Drug] -5.52): 82.1384 and 82.3875 and 75.0785 and 87.4334 and 93.0858 and 74.7688 and 89.9797 and 94.4943 and 85.5765
- Response, Fig_S11b dose-response ([4]; Log[Drug] -6): 92.7696 and 95.5936 and 84.8792 and 92.7883 and 90.7908 and 90.8333 and 98.9533 and 107.927 and 83.4028
- Response, Fig_S11b dose-response ([4]; Log[Drug] -6.52): 97.1163 and 91.7176 and 84.6854 and 100.523 and 99.588 and 84.586 and 94.4943 (2×) and 87.9175
- Response, Fig_S11b dose-response ([4]; Log[Drug] -7): 88.7275 and 92.9358 and 71.1749 and 92.7033 and 88.1559 and 76.2138 and 94.4943 and 90.0354 and 94.6058
- Response, Fig_S11b dose-response ([4]; Log[Drug] -7.52): 77.9025 and 80.4772 and 73.7773 and 81.6111 and 84.246 and 79.2737 and 92.3206 (2×) and 90.0912
- Response, Fig_S11b dose-response ([4]; Log[Drug] -8): 77.3211 and 65.3055 and 54.0098 and 88.3259 and 67.3316 and 76.7238 and 92.3764 and 94.6058 and 90.1469
- Response, Fig_S11b dose-response ([4]; Log[Drug] -8.52): 58.6056 and 55.6709 and 54.785 and 76.7663 and 68.819 and 71.6664 and 72.5342 and 65.79 and 68.0195
- Response, Fig_S11b dose-response ([4]; Log[Drug] -9): 60.5713 and 46.8115 and 46.2578 and 72.3889 and 53.7745 and 57.9819 and 43.7184 and 46.0036 and 36.9186
- Response, Fig_S11b dose-response ([4]; Log[Drug] -11): 6.418 and 5.781 and 25.106 and 20.5831 and 9.873 and -2.9186 and 1.972 and -15.9196 and 1.6931
- Response, Fig_S11b dose-response ([4]; Log[Drug] -11.52): -0.171 and -1.0016 and 12.1684 and 15.5258 and 10.8339 and -7.0018 and -2.6544
- Response, Fig_S11b dose-response ([4]; Log[Drug] -12): 10.388 and -0.6478 and -16.2541
- EC50 [5]: > 10 µM
- Emax relative to quinpirole response ([6]; DRD2, Tango): 96.83%
- EC50 ([6]; DRD2, β-arrestin2 recruitment (Tango), read-out: EC50 ± SEM): 48 ± 17.4 nM
- response, Fig_S11c dose-response source data ([6]; Fig_S11c, Log[Drug] -5, replicate values): 92.0049 and 94.8711 and 101.869 and 86.3956 and 96.7296 and 94.1831 and 124.768 and 128.356
- Response, Fig_S11c dose-response ([6]; Log[Drug] -6.52): 78.0067 and 72.6033 and 81.7269
- Response, Fig_S11c dose-response ([6]; Log[Drug] -7): 59.3634 and 78.1496 and 92.3943 and 62.4498 and 64.4647 and 75.7752 and 66.3683 and 83.054 and 11.3874
- Response, Fig_S11c dose-response ([6]; Log[Drug] -7.52): 39.0633 and 46.4823 and 48.2261 and 47.7888 and 46.5069 and 50.1562 and 52.6803 and 36.834 and 2.983
- Response, Fig_S11c dose-response ([6]; Log[Drug] -8): 13.2042 and 18.1697 and 22.7864 and 24.8922 and 32.8443 and 29.0019 and 29.5472 and 40.4681 and 3.216
- Response, Fig_S11c dose-response ([6]; Log[Drug] -8.52): 6.043 and 5.645 and 6.29 and 8.275 and 9.219 and 10.0453 and 7.5026 and 13.6733
- Response, Fig_S11c dose-response ([6]; Log[Drug] -9): 3.483 and 3.9317 and 4.775 and 3.72 and 3.708 and 4.581 and 2.217 and 12.7509 and 0.7411
- Response, Fig_S11c dose-response ([6]; Log[Drug] -9.52): 2.993 and 3.331 and 4.098 and 2.754 and 3.737 and 4.1942 and 7.991 and 10.1775 and 1.675
- Response, Fig_S11c dose-response ([6]; Log[Drug] -10): 3.128 and 3.469 and 3.576 and 3.051 and 3 and 3.543 and 4.136 and 3.1859 and 0.7745
- Response, Fig_S11c dose-response ([6]; Log[Drug] -10.52): 3.13 and 3.099 and 3.417 and 2.557 and 2.786 and 3.353 and 2.31 and 1.747 and 0.1927
- Response, Fig_S11c dose-response ([6]; Log[Drug] -11): 2.735 and 2.569 and 3.311 and 2.422 and 2.816 and 3.208 and 1.747 and 3.739 and 0.4891
- Response, Fig_S11c dose-response ([6]; Log[Drug] -11.52): 2.576 and 2.946 and 3.152 and 2.7257 and 2.6254 and 2.896 and 3.227 and 4.708 and 2.264
- Response, Fig_S11c dose-response ([6]; Log[Drug] -12): 2.314 (2×) and 2.658 and 2.679 and 2.551 and 2.481 and 2.532 and 1.9407
- Emax relative to quinpirole response [7]: 53.92%
- EC50 ([7]; read-out: EC50 ± SEM): 2070 ± 524 nM
- EC50 [8]: > 10 µM
- pKi ± SEM [9]: 6.17±0.24
- Ki ([9]; read-out: Ki): 680 nM
